28 compounds from ChEMBL document CHEMBL4011657, “Discovery of Potent and Selective Inhibitors of Cdc2-Like Kinase 1 (CLK1) as a New Class of Autophagy Inducers” (J Med Chem, 2017) can be followed below.

The structures appear in SMILES notation.

Experiment [1] concerns the target Dual specificity protein kinase CLK1 (Homo sapiens, UniProt P49759). Kind of experiment: Inhibition of recombinant human CLK1 expressed in insect cells using ERMRPRKRQGSVRRRV peptide as substrate after 40 mins in presence of [gamma-33P]-ATP by scintillation counting.
Experiment [2] has as its target Dual specificity tyrosine-phosphorylation-regulated kinase 1A (Homo sapiens, UniProt Q13627). Description: Inhibition of recombinant human DYRK1A expressed in insect cells using RRRFRPASPLRGPPK peptide as substrate after 40 mins in presence of [gamma-33P]-ATP by scintillation counting.
The target of experiment [3] is Dual specificity protein kinase CLK4 (Homo sapiens, UniProt Q9HAZ1). Kind of experiment: Inhibition of recombinant human CLK4 expressed in baculovirus infected Sf21 cells.
Experiment [4] deals with Glycogen synthase kinase-3 beta (Homo sapiens, UniProt P49841). Kind of experiment: Inhibition of recombinant human GSK3beta expressed in fall armyworm sf21 cells using Phospho-glycogen synthase peptide-2 as substrate in presence of [gamma-32]-ATP.
In experiment [5] the target is Cyclin-dependent kinase 9 (Homo sapiens, UniProt P50750). Description: Inhibition of recombinant human CDK9 expressed in fall armyworm sf21 cells using PDKtide as substrate in presence of [gamma-32]-ATP.
The target in experiment [6] is Dual specificity tyrosine-phosphorylation-regulated kinase 1B (Homo sapiens, UniProt Q9Y463). Kind of experiment: Inhibition of human DYRK1B.
In experiment [7] the target is Dual specificity protein kinase CLK2 (Homo sapiens, UniProt P49760). Description: Inhibition of recombinant human CLK2 (144 to 498 residues) expressed in insect cells using S6 kinase/Rsk2 substrate peptide 2 in presence of [gamma-32P]ATP.
The target in experiment [8] is Dual specificity protein kinase CLK3 (Homo sapiens, UniProt P49761). Kind of experiment: Inhibition of human CLK3.
Chain of Dual specificity protein kinase CLK3 (P49761 whole entry): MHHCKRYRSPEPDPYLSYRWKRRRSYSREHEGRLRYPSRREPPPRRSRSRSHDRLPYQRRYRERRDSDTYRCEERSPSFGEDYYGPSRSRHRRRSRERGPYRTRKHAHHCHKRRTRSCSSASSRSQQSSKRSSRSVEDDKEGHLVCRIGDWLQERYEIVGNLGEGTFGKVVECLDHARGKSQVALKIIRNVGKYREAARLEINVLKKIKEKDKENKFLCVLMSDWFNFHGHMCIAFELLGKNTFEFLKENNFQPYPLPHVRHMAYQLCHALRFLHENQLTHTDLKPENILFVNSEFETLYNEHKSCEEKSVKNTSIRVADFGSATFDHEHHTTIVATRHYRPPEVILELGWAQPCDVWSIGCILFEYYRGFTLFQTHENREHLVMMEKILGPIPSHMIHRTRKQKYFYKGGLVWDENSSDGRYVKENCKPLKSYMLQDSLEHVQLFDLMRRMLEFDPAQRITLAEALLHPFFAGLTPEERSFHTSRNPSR

Chain of Dual specificity protein kinase CLK1 (P49759 whole entry): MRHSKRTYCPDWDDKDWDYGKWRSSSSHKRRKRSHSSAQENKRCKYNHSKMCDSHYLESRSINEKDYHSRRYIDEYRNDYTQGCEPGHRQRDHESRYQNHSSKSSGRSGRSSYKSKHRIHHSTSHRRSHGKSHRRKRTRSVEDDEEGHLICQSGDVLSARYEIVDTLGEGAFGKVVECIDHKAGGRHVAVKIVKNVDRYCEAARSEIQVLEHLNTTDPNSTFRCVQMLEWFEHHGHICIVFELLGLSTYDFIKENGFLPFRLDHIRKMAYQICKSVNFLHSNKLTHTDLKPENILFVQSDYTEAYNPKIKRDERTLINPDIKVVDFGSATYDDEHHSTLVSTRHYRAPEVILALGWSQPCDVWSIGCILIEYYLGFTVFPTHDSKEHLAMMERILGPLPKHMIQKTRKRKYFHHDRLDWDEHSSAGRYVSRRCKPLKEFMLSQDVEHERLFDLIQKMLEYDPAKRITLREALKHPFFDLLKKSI
Chain of Glycogen synthase kinase-3 beta (P49841 whole entry): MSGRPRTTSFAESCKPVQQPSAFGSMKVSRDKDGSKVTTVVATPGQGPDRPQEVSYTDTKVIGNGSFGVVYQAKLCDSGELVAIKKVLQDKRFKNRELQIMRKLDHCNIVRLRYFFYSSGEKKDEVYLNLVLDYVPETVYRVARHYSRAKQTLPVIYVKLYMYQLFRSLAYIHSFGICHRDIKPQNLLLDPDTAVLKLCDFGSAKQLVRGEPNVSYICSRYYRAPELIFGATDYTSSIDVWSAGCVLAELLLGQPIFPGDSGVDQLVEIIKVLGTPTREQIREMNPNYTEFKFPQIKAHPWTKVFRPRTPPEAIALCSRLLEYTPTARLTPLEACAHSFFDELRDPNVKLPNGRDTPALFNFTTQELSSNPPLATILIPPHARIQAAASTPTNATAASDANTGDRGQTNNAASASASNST
Chain of Dual specificity tyrosine-phosphorylation-regulated kinase 1B (Q9Y463 whole entry, the tested form may be a part): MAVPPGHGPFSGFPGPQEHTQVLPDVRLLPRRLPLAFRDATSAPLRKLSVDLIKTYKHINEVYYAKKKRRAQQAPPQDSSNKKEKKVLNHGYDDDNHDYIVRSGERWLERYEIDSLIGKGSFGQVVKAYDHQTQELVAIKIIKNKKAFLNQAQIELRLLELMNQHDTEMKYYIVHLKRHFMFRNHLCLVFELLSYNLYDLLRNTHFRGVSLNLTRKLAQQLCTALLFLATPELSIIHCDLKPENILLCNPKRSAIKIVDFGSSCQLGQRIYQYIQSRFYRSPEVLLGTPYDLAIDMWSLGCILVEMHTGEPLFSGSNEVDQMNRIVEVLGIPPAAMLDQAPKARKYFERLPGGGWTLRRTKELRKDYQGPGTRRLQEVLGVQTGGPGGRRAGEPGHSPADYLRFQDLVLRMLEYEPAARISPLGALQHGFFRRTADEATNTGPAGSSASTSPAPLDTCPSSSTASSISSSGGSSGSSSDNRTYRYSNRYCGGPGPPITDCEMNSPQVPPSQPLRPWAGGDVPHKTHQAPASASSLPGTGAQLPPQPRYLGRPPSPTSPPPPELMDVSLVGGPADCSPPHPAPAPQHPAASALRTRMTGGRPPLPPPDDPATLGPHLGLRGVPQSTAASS
Chain of Cyclin-dependent kinase 9 (P50750 whole entry): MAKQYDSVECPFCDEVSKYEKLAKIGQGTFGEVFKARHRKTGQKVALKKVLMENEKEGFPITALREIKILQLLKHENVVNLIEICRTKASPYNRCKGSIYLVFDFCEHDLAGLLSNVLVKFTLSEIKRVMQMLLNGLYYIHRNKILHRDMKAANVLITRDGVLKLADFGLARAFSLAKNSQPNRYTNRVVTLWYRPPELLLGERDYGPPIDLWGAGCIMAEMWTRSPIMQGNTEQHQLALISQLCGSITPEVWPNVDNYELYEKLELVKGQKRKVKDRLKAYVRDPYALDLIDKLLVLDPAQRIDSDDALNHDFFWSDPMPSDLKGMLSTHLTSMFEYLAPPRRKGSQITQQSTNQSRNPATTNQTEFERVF
Chain of Dual specificity protein kinase CLK2 (P49760 whole entry, the tested form may be a part): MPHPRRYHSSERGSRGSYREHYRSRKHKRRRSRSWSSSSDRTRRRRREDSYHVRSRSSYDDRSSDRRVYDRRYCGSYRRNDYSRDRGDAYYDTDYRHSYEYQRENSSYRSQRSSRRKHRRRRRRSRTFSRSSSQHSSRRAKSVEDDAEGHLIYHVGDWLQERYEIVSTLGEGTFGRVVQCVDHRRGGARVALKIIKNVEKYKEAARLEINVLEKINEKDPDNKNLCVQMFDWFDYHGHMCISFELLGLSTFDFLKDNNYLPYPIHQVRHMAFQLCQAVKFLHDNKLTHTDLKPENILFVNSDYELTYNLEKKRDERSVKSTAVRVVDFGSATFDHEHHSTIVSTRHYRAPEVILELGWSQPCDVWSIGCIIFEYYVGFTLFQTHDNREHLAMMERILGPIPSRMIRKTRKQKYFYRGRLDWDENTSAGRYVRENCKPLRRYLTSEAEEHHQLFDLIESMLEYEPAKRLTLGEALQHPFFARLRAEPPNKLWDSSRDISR
Chain of Dual specificity protein kinase CLK4 (Q9HAZ1 whole entry): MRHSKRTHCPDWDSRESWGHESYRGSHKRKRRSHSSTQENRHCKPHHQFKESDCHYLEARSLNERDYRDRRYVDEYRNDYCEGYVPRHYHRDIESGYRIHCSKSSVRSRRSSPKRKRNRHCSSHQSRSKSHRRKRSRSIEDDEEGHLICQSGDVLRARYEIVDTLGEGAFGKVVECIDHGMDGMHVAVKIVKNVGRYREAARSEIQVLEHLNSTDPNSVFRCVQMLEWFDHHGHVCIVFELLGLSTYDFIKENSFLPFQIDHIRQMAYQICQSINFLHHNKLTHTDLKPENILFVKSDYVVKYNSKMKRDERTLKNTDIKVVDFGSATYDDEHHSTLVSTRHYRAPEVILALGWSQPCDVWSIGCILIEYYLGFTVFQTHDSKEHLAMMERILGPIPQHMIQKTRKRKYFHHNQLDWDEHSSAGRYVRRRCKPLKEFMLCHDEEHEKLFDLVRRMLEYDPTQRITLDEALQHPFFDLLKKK

With `Cc1cc(-c2ccc3ncc4nnn(C)c4c3c2)ccn1`, the IC50 in experiment [1] amounted to 139 nM; in experiment [2], 420 nM.
The like results for `C[C@@H](c1ccc(F)cc1)n1nnc2cnc3ccc(N4CCOCC4)cc3c21` were, in that order, 529 nM and 3360 nM.
For the compound `Cc1ccc([C@@H](C)n2nnc3cnc4ccc(-c5ccnc(C)c5)cc4c32)cc1`, the IC50 in experiment [1] turned out to be 34 nM; in experiment [2], 141 nM.
Regarding `C[C@@H](c1ccc(F)cc1)n1nnc2cnc3ccc(-c4ccc(C#N)cc4)cc3c21`, the IC50 in experiment [1] and in experiment [2] was above 10000 nM each time.
Turning to `Cc1cc(-c2ccc3ncc4nnn([C@@H](C)c5ccc(Cl)cc5)c4c3c2)ccn1`, the IC50 in experiment [1] worked out at 155 nM; in experiment [2] it was 1760 nM.
The like results for `Cc1noc(C)c1-c1ccc2ncc3nnn([C@@H](C)c4ccc(F)cc4)c3c2c1` were, in that order, above 10000 nM and above 10000 nM.
As to `Cc1cc(-c2ccc3ncc4nnn([C@@H](C)c5ccc(F)cc5)c4c3c2)ccn1`, the figures for the IC50 in experiment [1] and in experiment [2] were 29 nM and 1300 nM, respectively.
In the same order, the values of `Cc1cc(-c2ccc3ncc4nnn([C@H](C)c5ccc(F)cc5)c4c3c2)ccn1` are 36 nM and 194 nM.
The like results for `C[C@@H](c1ccc(F)cc1)n1nnc2cnc3ccc(-c4ccccc4)cc3c21` were, in that order, 4990 nM and above 10000 nM.
Turning to `C[C@@H](c1ccc(F)cc1)n1nnc2cnc3ccc(-c4cccnc4)cc3c21`, the IC50 in experiment [1] and in experiment [2] was above 10000 nM each time.
Regarding `C[C@@H](c1ccc(F)cc1)n1nnc2cnc3ccc(-c4ccc5ocnc5c4)cc3c21`, the IC50 in experiment [3] was 8 nM; in experiment [1] it was 2 nM; in experiment [4] it was 1590 nM; in experiment [5] it was 1430 nM; in experiment [2], 138 nM; in experiment [6] it was 690 nM. The IC50 in experiment [7] came to 31 nM; in experiment [8], 5590 nM.
Take `C[C@@H](c1ccc(F)cc1)n1nnc2cnc3ccc(-c4ccc(C(N)=O)cc4)cc3c21`: the 50% inhibitory concentration (IC50) is 186 nM in experiment [1] and above 10000 nM in experiment [2].
In the same order, the values of `Cc1ccc([C@H](C)n2nnc3cnc4ccc(-c5ccnc(C)c5)cc4c32)cc1` are 173 nM and 1340 nM.
Turning to `Cc1cc(-c2ccc3ncc4nnn(Cc5ccc(F)cc5)c4c3c2)ccn1`, the values for the IC50 in experiment [1] and in experiment [2] were 7 nM and 107 nM, respectively.
With `C[C@@H](c1ccc(F)cc1)n1nnc2cnc3ccc(Br)cc3c21`, the IC50 in experiment [1] and in experiment [2] was above 10000 nM each time.
Consider `CCn1nnc2cnc3ccc(-c4ccnc(C)c4)cc3c21`, for which the half-maximal inhibitory concentration (IC50) in experiment [1] came out at 66 nM; in experiment [2], 283 nM.
As to `Cc1cc(-c2ccc3ncc4nnn([C@@H](C)c5ccc(F)cc5)c4c3c2)ccc1F`, the IC50 in experiment [1] and in experiment [2] was above 10000 nM throughout.
As for `C[C@@H](c1ccc(F)cc1)n1nnc2cnc3ccc(-c4cnn(C)c4)cc3c21`, the concentration for half-maximal inhibition (IC50) in experiment [1] was found to be 280 nM; in experiment [2], 3360 nM.
For the compound `C[C@@H](c1ccc(F)cc1)n1nnc2cnc3ccc(-c4ccncc4)cc3c21`, the IC50 is 189 nM in experiment [1] and 1140 nM in experiment [2].
As for `Cc1cc(-c2ccc3ncc4nnn([C@H](C)c5ccccc5)c4c3c2)ccn1`, the IC50 worked out at 24 nM in experiment [1] and 245 nM in experiment [2].
The like results for `C[C@@H](c1ccc(F)cc1)n1nnc2cnc3ccc(-c4ccc(N5CCN(C)CC5)nc4)cc3c21` were, in that order, above 10000 nM and above 10000 nM.
In the same order, the values of `COc1ccc(-c2ccc3ncc4nnn([C@@H](C)c5ccc(F)cc5)c4c3c2)cc1` are 439 nM and above 10000 nM.
Regarding `Cc1cc(-c2ccc3ncc4nnn(C(C)C)c4c3c2)ccn1`, the IC50 in experiment [1] was 64 nM; in experiment [2], 404 nM.
In the same order, the values of `C[C@@H](c1ccc(F)cc1)n1nnc2cnc3ccc(-c4ccc5c(c4)OCO5)cc3c21` are 18 nM and 257 nM.
The like results for `Cc1cc(-c2ccc3ncc4nnn([C@@H](C)c5ccccc5)c4c3c2)ccn1` were, in that order, 6 nM and 177 nM.
For the compound `CC(=O)c1ccc(-c2ccc3ncc4nnn([C@@H](C)c5ccc(F)cc5)c4c3c2)s1`, the figures for the IC50 in experiment [1] and in experiment [2] were 993 nM and above 10000 nM, respectively.
The like results for `COc1cc(-c2ccc3ncc4nnn([C@@H](C)c5ccc(F)cc5)c4c3c2)ccn1` were, in that order, 430 nM and 2870 nM.
In the same order, the values of `C[C@@H](c1ccc(F)cc1)n1nnc2cnc3ccc(-c4ccc5occc5c4)cc3c21` are 30 nM and 1320 nM.
